This is an account of results in PMC5908784, “Extracellular loops 2 and 3 of the calcitonin receptor selectively modify agonist binding and efficacy” (Biochemical Pharmacology, 2018).

Changes are numbered by the printed parent chain.

Holding throughout (test): ERK1/2 phosphorylation
Format in all cases: cell-based
Common to all, as to conditions: pERK maximal response, CV1-FlpIn cells, mean ± S.E.M.

For one experiment, the target named is T1, hCTR S364A (Homo sapiens, UniProt P30988, S364A).
T1 construct: c-Myc (N); expressed in transfected cells
T1 sequence (P30988 25-474 S364A): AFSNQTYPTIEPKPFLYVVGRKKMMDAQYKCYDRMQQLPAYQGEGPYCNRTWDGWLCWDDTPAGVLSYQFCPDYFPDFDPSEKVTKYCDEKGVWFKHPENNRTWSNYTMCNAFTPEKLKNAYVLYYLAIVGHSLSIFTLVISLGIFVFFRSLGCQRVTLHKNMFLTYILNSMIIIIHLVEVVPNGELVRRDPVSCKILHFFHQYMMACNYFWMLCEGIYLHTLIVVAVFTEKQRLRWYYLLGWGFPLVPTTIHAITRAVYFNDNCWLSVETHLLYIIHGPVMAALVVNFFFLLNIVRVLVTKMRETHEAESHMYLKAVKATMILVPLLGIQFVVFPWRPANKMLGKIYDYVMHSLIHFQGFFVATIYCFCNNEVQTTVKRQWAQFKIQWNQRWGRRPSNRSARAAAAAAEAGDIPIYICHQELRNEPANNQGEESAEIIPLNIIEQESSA
In short, it runs like this: (§1)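 EC50 and Emax values derive from three-parameter logistic curves and combine functional affinity, efficacy and stimulus-response coupling. Responses are normalized to 10% FBS (6 min).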

The target of a further experiment is T2, hCTR L291A (Homo sapiens, UniProt P30988, L291A).
T2 construct: expressed in transfected cells
T2 sequence (P30988 25-474 L291A): T1 sequence (P30988 25-474 S364A) with L267A, A340S
In outline: as §1

A further experiment addresses T3, hCTR P360A (Homo sapiens, UniProt P30988, P360A).
T3 construct: expressed in transfected cells
T3 sequence (P30988 25-474 P360A): T1 sequence (P30988 25-474 S364A) with P336A, A340S
In short, it runs like this:
as §1

In the next experiment the target is T4, hCTR L297A (Homo sapiens, UniProt P30988, L297A).
T4 construct: c-Myc (N); expressed in transfected cells
T4 sequence (P30988 25-474 L297A): T1 sequence (P30988 25-474 S364A) with L273A, A340S
In short, it runs like this:
as §1

The target in a further experiment is T5, hCTR T280A (Homo sapiens, UniProt P30988, T280A).
T5 construct: expressed in transfected cells
T5 sequence (P30988 25-474 T280A): T1 sequence (P30988 25-474 S364A) with T256A, A340S
In short, it runs like this:
as §1

As for `CC[C@H](C)[C@H](NC(=O)[C@H](C)NC(=O)[C@@H](NC(=O)[C@H](CCC(N)=O)NC(=O)[C@@H]1CCCN1C(=O)[C@H](Cc1ccccc1)NC(=O)[C@@H](NC(=O)[C@H](Cc1c[nH]cn1)NC(=O)[C@H](Cc1ccccc1)NC(=O)[C@H](CCCCN)NC(=O)[C@H](CC(N)=O)NC(=O)[C@H](Cc1ccccc1)NC(=O)[C@H](CC(=O)O)NC(=O)[C@H](CCC(N)=O)NC(=O)[C@@H](NC(=O)[C@H](Cc1ccc(O)cc1)NC(=O)[C@@H](NC(=O)CNC(=O)[C@H](CC(C)C)NC(=O)[C@H](CCSC)NC(=O)[C@@H]1CSSC[C@H](N)C(=O)NCC(=O)N[C@@H](CC(N)=O)C(=O)N[C@@H](CC(C)C)C(=O)N[C@@H](CO)C(=O)N[C@@H]([C@@H](C)O)C(=O)N1)[C@@H](C)O)[C@@H](C)O)[C@@H](C)O)[C@@H](C)O)C(=O)NCC(=O)N[C@H](C(=O)NCC(=O)N[C@@H](C)C(=O)N1CCC[C@H]1C(N)=O)C(C)C` [hCT], the Emax (in general, the greatest response seen or fitted, relative to the assay's reference) was 135 ± 10% on hCTR S364A; 72 ± 9% on hCTR L291A; 51 ± 6% at hCTR P360A; 63 ± 5% at hCTR L297A; 168 ± 12% on hCTR T280A.
